In one assay the test system is Strep. faecalis HH 34358. Briefly: In vitro antibacterial activity (MIC). Type of assay: cell-based. As to conditions: Enterococcus faecalis, HH34358; Strep. faecalis HH 34358, in vitro. The protocol: (§1) The compounds of this invention have antibacterial activity against Gram-positive and Gram-negative organisms. Minimum inhibitory concentrations (MIC's) ranged from 0.4 to >200 μg/ml in in vitro testing.

The subject of a further assay is Kleb. pneumo. SK 1200. Briefly: In vitro antibacterial activity (MIC). Particulars: Kleb. pneumo. SK 1200, in vitro; read-out: MIC. Type of assay: cell-based. The protocol:
as §1

For a further assay, the system named is Kleb. pneumo. SK 4200. Briefly: In vitro antibacterial activity (MIC). Type of assay: cell-based. The protocol: as §1
The subject of another assay is S.aureus Villaluz. Briefly: In vitro antibacterial activity (MIC). The class given is cell-based. As to conditions: Staphylococcus aureus. The protocol: as §1
The test system of the next assay is Shig. paradys HH 112. Briefly: In vitro antibacterial activity (MIC). The class given is cell-based. As to conditions: Shig. paradys HH 112, in vitro; read-out: MIC. The protocol:
as §1

Assay [1] deals with Entero. aerog. ATCC 13048. Briefly: In vitro antibacterial activity (MIC). As to conditions: Entero. aerog. ATCC 13048, in vitro; read-out: MIC. The class given is cell-based. The protocol:
as §1

Another assay deals with E.coli SK 12140. Briefly: In vitro antibacterial activity (MIC). Type of assay: cell-based. Particulars: Escherichia coli, SK12140. The protocol: as §1
The next assay concerns S.aureus HH 127. The experiment in a line: In vitro antibacterial activity (MIC). Type of assay: cell-based. As to conditions: Staphylococcus aureus, HH127. The protocol:
as §1

A further assay has as its system S.aureus SK 23390. The experiment in a line: In vitro antibacterial activity (MIC). Type of assay: cell-based. Particulars: Staphylococcus aureus, SK23390. The protocol:
as §1

Another assay has as its system E. coli HH 33779. Briefly: In vitro antibacterial activity (MIC). The class given is cell-based. Particulars: Escherichia coli, HH33779; E. coli HH 33779, in vitro; read-out: MIC. The protocol:
as §1

The next assay relates to Klebs.pneumo. 4200. The experiment in a line: In vivo activity (ED50) against Klebs.pneumo. 4200.
The next assay relates to E.coli 12140. The experiment in a line: In vivo activity (ED50) against E.coli 12140.
Assay [2] deals with Sal. paratyphl ATCC 12176. Briefly: In vitro antibacterial activity (MIC). The class given is cell-based. The protocol: as §1
The subject of the next assay is Proteus morgani 179. Briefly: In vitro antibacterial activity (MIC). Type of assay: cell-based. As to conditions: Proteus morgani 179, in vitro; read-out: MIC. The protocol: as §1
The mark [3] stands for this setting: Kleb. pneumo. SK 4200, in vitro, read-out: MIC.
[4] abbreviates: E.coli SK 12140, in vitro, read-out: MIC.
Setting [5] is: S.aureus HH 127, in vitro, read-out: MIC.
The mark [6] stands for this setting: S.aureus SK 23390, in vitro, read-out: MIC.
Setting [7] is: po, Klebs.pneumo. 4200, p.o., read-out: ED50.
Where [8] appears, read: sc, Klebs.pneumo. 4200, s.c., read-out: ED50.
Setting [9] is: Escherichia coli, 12140, po, E.coli 12140, p.o.
Setting [10] is: Escherichia coli, 12140, sc, E.coli 12140, s.c.

The results in this text go back to patent US4022895A, “Substituted phenylglycylcephalosporins” (SmithKline Corporation, priority 1975, dated 1977).

Converted amounts (≈) assume the structure as drawn. Read-outs that look alike come from different tables or passages of the source.

In general, MIC refers to the lowest concentration that inhibits growth of the organism. The term ED50 denotes the dose that gives a 50% effect, or the effect in half of the subjects.

Take `CC1=C(C(=O)O)N2C(=O)C(NC(=O)[C@H](N)c3ccc(OCC(N)=O)cc3)C2SC1` (stereo partly drawn) [Compound No. 00036, 7-[D-α-Amino-α-(4'-carbamylmethoxyphenyl)acetamido]-3-desacetoxycephalosporanic acid]: the MIC is 50 µg/mL (≈ 119 µM) against Strep. faecalis HH 34358; 25 µg/mL (≈ 59.5 µM) in the assay on Kleb. pneumo. SK 1200; 25 µg/mL (≈ 59.5 µM) in the assay with Kleb. pneumo. SK 4200 (setting [3]); 200 µg/mL (≈ 476 µM) against S.aureus Villaluz; 12.5 µg/mL (≈ 29.7 µM) with Shig. paradys HH 112; 100 µg/mL (≈ 238 µM) in assay [1]. Further, the MIC in the assay with E.coli SK 12140 (setting [4]) came out at 25 µg/mL (≈ 59.5 µM); in the assay on S.aureus HH 127 (setting [5]) it was 3.1 µg/mL (≈ 7.37 µM); in the assay with S.aureus SK 23390 (setting [6]), 3.1 µg/mL (≈ 7.37 µM); with E. coli HH 33779, 50 µg/mL (≈ 119 µM).
With `N[C@@H](C(=O)NC1C(=O)N2C(C(=O)O)=C(CSc3c[nH]nn3)CSC12)c1ccc(SCC(=O)O)cc1` (stereo partly drawn) [Compound No. 04726, 7-[D-α-Amino-α-(4'-carboxymethylthiophenyl)-acetamido]-3-(1,2,3,-triazol-4-ylthiomethyl)-3-cephem-4-carboxylic acid], the ED50 in the assay with Klebs.pneumo. 4200 (setting [7]) amounted to 14.5 mg/kg; in the assay with Klebs.pneumo. 4200 (setting [8]), 9.5 mg/kg; with E.coli 12140 (setting [9]) it was 46 mg/kg; with E.coli 12140 (setting [10]), 12.5 mg/kg. In addition, the MIC against Strep. faecalis HH 34358 is 200 µg/mL (≈ 373 µM); in the assay with Kleb. pneumo. SK 1200, 3.1 µg/mL (≈ 5.78 µM); with Kleb. pneumo. SK 4200 (setting [3]), 3.1 µg/mL (≈ 5.78 µM); in the assay with S.aureus Villaluz, 100 µg/mL (≈ 186 µM); in the assay with Shig. paradys HH 112 it was 6.3 µg/mL (≈ 11.7 µM); in assay [1], 25 µg/mL (≈ 46.6 µM). For the same compound, the MIC came out at 25 µg/mL (≈ 46.6 µM) with E.coli SK 12140 (setting [4]), 12.5 µg/mL (≈ 23.3 µM) in the assay on S.aureus HH 127 (setting [5]), 12.5 µg/mL (≈ 23.3 µM) in the assay with S.aureus SK 23390 (setting [6]) and 12.5 µg/mL (≈ 23.3 µM) with E. coli HH 33779.
Turning to `CC1=C(C(=O)O)N2C(=O)C(NC(=O)[C@H](N)c3ccc(NCC(=O)O)cc3)C2SC1` (stereo partly drawn) [Compound No. 51436, 7-[D-α-Amino-α-(4'-carboxymethylaminophenyl)acetamido]-3-desacetoxycephalosphoranic acid], the MIC in the assay on Strep. faecalis HH 34358 came out at 200 µg/mL (≈ 476 µM); in the assay on Kleb. pneumo. SK 1200, 50 µg/mL (≈ 119 µM); in the assay with Kleb. pneumo. SK 4200 it was 12.5 µg/mL (≈ 29.7 µM); against S.aureus Villaluz, 200 µg/mL (≈ 476 µM); with Shig. paradys HH 112 it was 25 µg/mL (≈ 59.5 µM); in assay [1], 100 µg/mL (≈ 238 µM). For the same compound, the MIC in the assay with E.coli SK 12140 (setting [4]) stood at 25 µg/mL (≈ 59.5 µM); in the assay on S.aureus HH 127, 12.5 µg/mL (≈ 29.7 µM); in the assay with S.aureus SK 23390 it was 12.5 µg/mL (≈ 29.7 µM); in the assay on E. coli HH 33779, 25 µg/mL (≈ 59.5 µM).
In the case of `Cc1nnc(SCC2=C(C(=O)O)N3C(=O)C(NC(=O)[C@H](N)c4ccc(SCCC(=O)O)cc4)C3SC2)s1` (stereo partly drawn) [Compound No. 61726, 7-[D-α-Amino-α-(4'-carboxyethylthiophenyl)acetamido]-3-(5-methyl-1,3,4-thiadiazol-2-ylthiomethyl)-3-cephem-4-carboxylic acid], the ED50 in the assay with Klebs.pneumo. 4200 (setting [7]) is over 50 mg/kg; in the assay on Klebs.pneumo. 4200 (setting [8]) it was 50 mg/kg. Also, the MIC against Strep. faecalis HH 34358 came out at 50 µg/mL (≈ 86 µM); in the assay with Kleb. pneumo. SK 1200, 6.3 µg/mL (≈ 10.8 µM); in [2], 12.5 µg/mL (≈ 21.5 µM); in the assay with Kleb. pneumo. SK 4200 (setting [3]), 6.3 µg/mL (≈ 10.8 µM); in the assay on S.aureus Villaluz, 50 µg/mL (≈ 86 µM); in [1] it was 25 µg/mL (≈ 43 µM). Besides, the MIC in the assay on E.coli SK 12140 was found to be 12.5 µg/mL (≈ 21.5 µM); in the assay with S.aureus HH 127 (setting [5]), 6.3 µg/mL (≈ 10.8 µM); in the assay with Proteus morgani 179, 200 µg/mL (≈ 344 µM); in the assay with S.aureus SK 23390 (setting [6]), 6.3 µg/mL (≈ 10.8 µM); with E. coli HH 33779, 25 µg/mL (≈ 43 µM).
Turning to `COC(=O)COc1ccc([C@@H](N)C(=O)NC2C(=O)N3C(C(=O)O)=C(CSc4nnc(C)s4)CSC23)cc1` (stereo partly drawn) [Compound No. 96826, 7-[D-α-Amino-α-(4'-carbomethoxymethoxyphenyl)acetamido]-3-(5-methyl-1,3,4-thiadiazol-2-ylthiomethyl)-3-cephem-4-carboxylic acid], the ED50 in the assay with Klebs.pneumo. 4200 (po) is 12.5 mg/kg; in the assay on Klebs.pneumo. 4200 (setting [8]), 7.2 mg/kg; in the assay on E.coli 12140 (setting [9]) it was 9.4 mg/kg; in the assay with E.coli 12140 (setting [10]), under 3 mg/kg. Moreover, the MIC with Strep. faecalis HH 34358 was determined as 25 µg/mL (≈ 44.2 µM); in the assay with Kleb. pneumo. SK 1200 it was 25 µg/mL (≈ 44.2 µM); in the assay on Kleb. pneumo. SK 4200 (setting [3]) it was 25 µg/mL (≈ 44.2 µM); in the assay with S.aureus Villaluz it was 25 µg/mL (≈ 44.2 µM); in the assay with Shig. paradys HH 112, 12.5 µg/mL (≈ 22.1 µM); in [1], 50 µg/mL (≈ 88.4 µM). In addition, the MIC in the assay on E.coli SK 12140 (setting [4]) came out at 25 µg/mL (≈ 44.2 µM); in the assay with S.aureus HH 127 (setting [5]), 3.1 µg/mL (≈ 5.48 µM); in the assay with Proteus morgani 179, 25 µg/mL (≈ 44.2 µM); in the assay with S.aureus SK 23390 (setting [6]) it was 3.1 µg/mL (≈ 5.48 µM); in the assay on E. coli HH 33779 it was 50 µg/mL (≈ 88.4 µM).
